#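 Results reflect a 48-hour exposure of cells in 96-well plates to compound at five concentrations. GI50 is the concentration that inhibits growth by half. Definition used: TGI = concentration required for complete inhibition of growth.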
# How the values were obtained:
# Assay in all cases: NCI tumour cell line growth inhibition, 48 h
# 786-0 renal = test system: 786-0 renal
# A498 renal = test system: A498 renal
# A549 NSCLC = test system: A549 NSCLC
# ACHN renal = test system: ACHN renal
# BT-549 breast = test system: BT-549 breast
# CAKI-1 renal = test system: CAKI-1 renal
# CCRF-CEM leukemia = test system: CCRF-CEM leukemia
# COLO 205 colon = test system: COLO 205 colon
# DU-145 prostate = test system: DU-145 prostate
# HCC-2998 colon = test system: HCC-2998 colon
# HCT-116 colon = test system: HCT-116 colon
# HCT-15 colon = test system: HCT-15 colon
# HL-60(TB) leukemia = test system: HL-60(TB) leukemia
# HOP-62 NSCLC = test system: HOP-62 NSCLC
# HOP-92 NSCLC = test system: HOP-92 NSCLC
# HS 578T breast = test system: HS 578T breast
# HT29 colon = test system: HT29 colon
# IGROV1 ovarian = test system: IGROV1 ovarian
# K-562 leukemia = test system: K-562 leukemia
# KM12 colon = test system: KM12 colon
# LOX IMVI melanoma = test system: LOX IMVI melanoma
# M14 melanoma = test system: M14 melanoma
# MALME-3M melanoma = test system: MALME-3M melanoma
# MCF7 breast = test system: MCF7 breast
# MDA-MB-231 breast = test system: MDA-MB-231 breast
# MDA-MB-435 = test system: MDA-MB-435
# MOLT-4 leukemia = test system: MOLT-4 leukemia
# NCI-H226 lung = test system: NCI-H226 lung
# NCI-H23 lung = test system: NCI-H23 lung
# NCI-H460 lung = test system: NCI-H460 lung
# NCI-H522 lung = test system: NCI-H522 lung
# NCI/ADR-RES ovarian = test system: NCI/ADR-RES ovarian
# OVCAR-3 ovarian = test system: OVCAR-3 ovarian
# OVCAR-4 ovarian = test system: OVCAR-4 ovarian
# OVCAR-5 ovarian = test system: OVCAR-5 ovarian
# OVCAR-8 ovarian = test system: OVCAR-8 ovarian
# PC-3 prostate = test system: PC-3 prostate
# RPMI-8226 leukemia = test system: RPMI-8226 leukemia
# RXF 393 renal = test system: RXF 393 renal
# SF-268 CNS = test system: SF-268 CNS
# SF-295 CNS = test system: SF-295 CNS
# SF-539 CNS = test system: SF-539 CNS
# SK-MEL-2 melanoma = test system: SK-MEL-2 melanoma
# SK-MEL-28 melanoma = test system: SK-MEL-28 melanoma
# SK-MEL-5 melanoma = test system: SK-MEL-5 melanoma
# SK-OV-3 ovarian = test system: SK-OV-3 ovarian
# SN12C renal = test system: SN12C renal
# SNB-19 CNS = test system: SNB-19 CNS
# SNB-75 CNS = test system: SNB-75 CNS
# SR leukemia = test system: SR leukemia
# SW-620 colon = test system: SW-620 colon
# T-47D breast = test system: T-47D breast
# TK-10 renal = test system: TK-10 renal
# U251 CNS = test system: U251 CNS
# UACC-257 melanoma = test system: UACC-257 melanoma
# UACC-62 melanoma = test system: UACC-62 melanoma
# UO-31 renal = test system: UO-31 renal
smiles,measurement,setting,value
Nc1c(C(=O)c2ccc(C#CCN3CCOCC3)cc2)cnn1-c1ccc(F)cc1,GI50,786-0 renal,> 25 µM
same,TGI,786-0 renal,> 25 µM
same,GI50,A498 renal,> 25 µM
same,TGI,A498 renal,> 25 µM
same,GI50,A549 NSCLC,> 25 µM
same,TGI,A549 NSCLC,> 25 µM
same,GI50,ACHN renal,> 25 µM
same,TGI,ACHN renal,> 25 µM
same,GI50,BT-549 breast,> 25 µM
same,TGI,BT-549 breast,> 25 µM
same,GI50,CAKI-1 renal,> 25 µM
same,TGI,CAKI-1 renal,> 25 µM
same,GI50,CCRF-CEM leukemia,> 25 µM
same,TGI,CCRF-CEM leukemia,> 25 µM
same,GI50,COLO 205 colon,> 25 µM
same,TGI,COLO 205 colon,> 25 µM
same,GI50,DU-145 prostate,> 25 µM
same,TGI,DU-145 prostate,> 25 µM
same,GI50,HCC-2998 colon,> 25 µM
same,TGI,HCC-2998 colon,> 25 µM
same,GI50,HCT-116 colon,> 25 µM
same,TGI,HCT-116 colon,> 25 µM
same,GI50,HCT-15 colon,> 25 µM
same,TGI,HCT-15 colon,> 25 µM
same,GI50,HL-60(TB) leukemia,> 25 µM
same,TGI,HL-60(TB) leukemia,> 25 µM
same,GI50,HOP-62 NSCLC,> 25 µM
same,TGI,HOP-62 NSCLC,> 25 µM
same,GI50,HOP-92 NSCLC,> 25 µM
same,TGI,HOP-92 NSCLC,> 25 µM
same,GI50,HS 578T breast,> 25 µM
same,TGI,HS 578T breast,> 25 µM
same,GI50,HT29 colon,> 25 µM
same,TGI,HT29 colon,> 25 µM
same,GI50,IGROV1 ovarian,> 25 µM
same,TGI,IGROV1 ovarian,> 25 µM
same,GI50,K-562 leukemia,> 25 µM
same,TGI,K-562 leukemia,> 25 µM
same,GI50,KM12 colon,> 25 µM
same,TGI,KM12 colon,> 25 µM
same,GI50,LOX IMVI melanoma,> 25 µM
same,TGI,LOX IMVI melanoma,> 25 µM
same,GI50,M14 melanoma,> 25 µM
same,TGI,M14 melanoma,> 25 µM
same,GI50,MALME-3M melanoma,> 25 µM
same,TGI,MALME-3M melanoma,> 25 µM
same,GI50,MCF7 breast,> 25 µM
same,TGI,MCF7 breast,> 25 µM
same,GI50,MDA-MB-231 breast,> 25 µM
same,TGI,MDA-MB-231 breast,> 25 µM
same,GI50,MDA-MB-435,> 25 µM
same,TGI,MDA-MB-435,> 25 µM
same,GI50,MOLT-4 leukemia,> 25 µM
same,TGI,MOLT-4 leukemia,> 25 µM
same,GI50,NCI-H226 lung,> 25 µM
same,TGI,NCI-H226 lung,> 25 µM
same,GI50,NCI-H23 lung,> 25 µM
same,TGI,NCI-H23 lung,> 25 µM
same,GI50,NCI-H460 lung,> 25 µM
same,TGI,NCI-H460 lung,> 25 µM
same,GI50,NCI-H522 lung,> 25 µM
same,TGI,NCI-H522 lung,> 25 µM
same,GI50,NCI/ADR-RES ovarian,> 25 µM
same,TGI,NCI/ADR-RES ovarian,> 25 µM
same,GI50,OVCAR-3 ovarian,> 25 µM
same,TGI,OVCAR-3 ovarian,> 25 µM
same,GI50,OVCAR-4 ovarian,> 25 µM
same,TGI,OVCAR-4 ovarian,> 25 µM
same,GI50,OVCAR-5 ovarian,> 25 µM
same,TGI,OVCAR-5 ovarian,> 25 µM
same,GI50,OVCAR-8 ovarian,> 25 µM
same,TGI,OVCAR-8 ovarian,> 25 µM
same,GI50,PC-3 prostate,> 25 µM
same,TGI,PC-3 prostate,> 25 µM
same,GI50,RPMI-8226 leukemia,> 25 µM
same,TGI,RPMI-8226 leukemia,> 25 µM
same,GI50,RXF 393 renal,> 25 µM
same,TGI,RXF 393 renal,> 25 µM
same,GI50,SF-268 CNS,> 25 µM
same,TGI,SF-268 CNS,> 25 µM
same,GI50,SF-295 CNS,> 25 µM
same,TGI,SF-295 CNS,> 25 µM
same,GI50,SF-539 CNS,> 25 µM
same,TGI,SF-539 CNS,> 25 µM
same,GI50,SK-MEL-2 melanoma,> 25 µM
same,TGI,SK-MEL-2 melanoma,> 25 µM
same,GI50,SK-MEL-28 melanoma,> 25 µM
same,TGI,SK-MEL-28 melanoma,> 25 µM
same,GI50,SK-MEL-5 melanoma,> 25 µM
same,TGI,SK-MEL-5 melanoma,> 25 µM
same,GI50,SK-OV-3 ovarian,> 25 µM
same,TGI,SK-OV-3 ovarian,> 25 µM
same,GI50,SN12C renal,> 25 µM
same,TGI,SN12C renal,> 25 µM
same,GI50,SNB-19 CNS,> 25 µM
same,TGI,SNB-19 CNS,> 25 µM
same,GI50,SNB-75 CNS,> 25 µM
same,TGI,SNB-75 CNS,> 25 µM
same,GI50,SR leukemia,> 25 µM
same,TGI,SR leukemia,> 25 µM
same,GI50,SW-620 colon,> 25 µM
same,TGI,SW-620 colon,> 25 µM
same,GI50,T-47D breast,> 25 µM
same,TGI,T-47D breast,> 25 µM
same,GI50,TK-10 renal,> 25 µM
same,TGI,TK-10 renal,> 25 µM
same,GI50,U251 CNS,> 25 µM
same,TGI,U251 CNS,> 25 µM
same,GI50,UACC-257 melanoma,> 25 µM
same,TGI,UACC-257 melanoma,> 25 µM
same,GI50,UACC-62 melanoma,> 25 µM
same,TGI,UACC-62 melanoma,> 25 µM
same,GI50,UO-31 renal,> 25 µM
same,TGI,UO-31 renal,> 25 µM

# From PubChem BioAssay (NCI)
